Results taken from US5506354A, “Imidazolylpiperazinyl steroids” (The Upjohn Company, priority 1992, dated 1996).
Where a name gives a salt, the structure may show the parent alone.

Experiments:
mouse head injury = assay: in vivo mouse head injury procedure of Hall (1 hr neurological recovery, grip test); conditions: statistically significant (p<0.05)
[1] = test system: serum and arterial cholesterol in quail fed an atherogenic diet; assay: Antiatherosclerosis Screen in Susceptible to Experimental Atherosclerosis (SEA) Japanese Quail; format: in vivo
Method: While not necessary, some minor modifications for extraction of cholesterol from the artery have been made. Time are as follows: frozen arteries are homogenized in hexane/isopropanol (3/2) and the volume adjusted with Triton 100 solution (1.5% in hexane/isopropanol) to 7 ml. After standing 12 hr at 20°-25°, the supernatant, obtained by low speed centrifugation is evaporated until dry and thru the residue is suspended in 0.5 ml of 5% Triton 100 in isopropanol. This suspension is incubated for 10 min at 45° to dissolve the material. This solution as well as the diluted serum samples are analyzed for cholesterol by standard clinical chemistry analyzer methods. According to the above procedure compounds which decrease serum or arterial cholesterol >30% are considered to be "active".

[2] = test system: AcylCoA:Cholesterol Acyltransferase (ACAT); assay: AcylCoA:Cholesterol Acyltransferase (ACAT) Inhibition Assay; format: cell-based; parameters: key to inhibition of ACAT (activity in words): compounds which inhibit ACAT activity equal to, or greater than, that of chloropromazine are considered "active"; conditions: for inhibition of ACAT (activity in words): preferred Fu5AH cells, compared with chloropromazine
Description: ACAT esterifies arterial cholesterol which is a key reaction in the development of atherosclerosis. The procedure of Bell, Can. […] In the ACAT assay it is preferred to use Fu5AH cells, see Lipids 9, 526 (1974). According to this procedure, compounds which inhibit ACAT activity equal to, or greater than, that of chloropromazine are considered "active".

mucous secretion = assay: Inhibition of mucous secretion assay of Johnson; conditions: induced mucous secretions
Description: According to this procedure compounds which inhibit or block enhancement of induced mucous secretions when tested are considered to be "active".

arachidonic acid = assay: Arachidonic Acid Antagonism Assay (AAAA), LD50 of sodium arachidonate; format: in vivo, Charles River male CF-1 mice; conditions: 100 mg/kg; test compound IV
Outline: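 Male CF-1 mice (18–22 g) received test compound IV in 1.0% Tween-80/0.1% HCl. LD50 was derived by Spearman-Karber (log dose interval 0.05, N=6), and activity was defined as LD50 elevation outside the control's 95% confidence interval.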

MDA formation = assay: Malonyldialdehyde (MDA) Formation Assay (rat brain synaptosomes); format: biochemical; conditions: 10 min at 37°, pH 7.0; active = 50% or more at 200 μM or less
Method: Since lipid peroxidation is involved in the pathophysiology of center nervous system trauma, compounds which inhibit MDA formation are useful in treating the conditions listed below.
While not necessary to determine MDA formation, the above assays have been modified as follows: rat brain synaptosomes are prepared as described in the Example about the conjugated diene assay, except that the final wash of the synaptosomes and final suspension are in physiological (normal) saline in which the pH has been adjusted to 7.0. The synaptosomes are incubated for 10 min at 37° in physiological (normal) saline pH 7.0 (total volume=100 ul) containing; 10 ul synaptosomal suspension, 10% DMSO plus or minus drug, 150 uM Fe^+++ and 50 uM Fe++. The incubation is started by the rapid addition of iron to the otherwise complete reaction. The iron solutions are prepared fresh as ferric chloride and ferrous ammonium sulfate in argon-purged water. Following the 10 min incubation, the reaction is stopped by the addition of 500 ul ice-cold 12% trichloroacetic acid prepared in 0.5N hydrochloric acid. Water (300 ul) is then added along with 100 ul of freshly prepared thiobarbituric acid (3.3% in 0.5N sodium hydroxide) and 10 ul of 5 mM desferrioxamine. The sample is then heated in a boiling water bath for 20 minutes. The samples are cooled and centrifuged for 15 minutes at 1500×g and the absorbence of the supernatant fraction is read at 532 nm. The % inhibition of MDA formation is calculated by dividing the absorbance of sample containing drug by the absorbence of samples incubated without drug. Reaction blanks are samples incubated in the absence of iron. A compound that inhibits MDA formation by 50% or more at a concentration of 200 μM or less is considered "active".

CS(=O)(=O)O.C[C@@H]1C[C@H]2[C@@H]3CCC4=CC(=O)C=C[C@]4(C)C3=CC[C@]2(C)[C@H]1C(=O)CN1CCN(c2cc(N3CCCC3)nc(N3CCCC3)n2)CC1.O [Example 109, 16α-Methyl-21-[4-[2,6-bis(1-pyrrolidinyl)-4-pyrimidinyl]-1-piperazinyl]-pregna-1,4,9(11)-triene-3,20-dione-monomethanesulfonate monohydrate]
% Increase in 1 hr Post-Injury Grip Test Scores After 3 mg/kg (mouse head injury): 184.4%

C[C@]12CCC(=O)C=C1CC[C@@H]1C2=CC[C@@]2(C)[C@H]1CC[C@]2(O)C(=O)CN1CCN(c2ccccn2)CC1.Cl [Example 3, 17α-Hydroxy-21-[4-(2-pyridinyl)-1-piperazinyl]pregna-4,9(11)-diene-3,20-dione hydrogen chloride salt]
reduction of arterial cholesterol (in words) ([1]; artery): demonstrates reduction of serum and arterial cholesterol
reduction of serum cholesterol (in words) ([1]; serum): demonstrates reduction of serum and arterial cholesterol
inhibition of ACAT (activity in words) [2]: active

CCNc1cccnc1N1CCN(CC(=O)[C@H]2[C@H](C)C[C@H]3[C@@H]4CCC5=CC(=O)C=C[C@]5(C)C4=CC[C@@]32C)CC1 [Example 127, 21-[4-[3-(Ethylamino)-2-pyridinyl]piperazinyl]-16α-methylpregna-1,4,9(11)-triene-3,20-dione hydrochloride]
% Increase in 1 hr Post-Injury Grip Test Scores After 3 mg/kg (mouse head injury): 200.8%

CCN(CC)c1cc(N2CCN(CC(=O)[C@@]3(O)CC[C@H]4[C@@H]5CCC6=CC(=O)CC[C@]6(C)[C@H]5[C@H](O)C[C@@]43C)CC2)nc(N(CC)CC)n1.Cl.Cl [Example 70, 21-[4-[2,6-bis(diethylamino)4-pyrimidinyl]-1-piperazinyl]-11α,17α-dihydroxypregn-4-ene-3,20-dione dihydrochloride]
% Increase in 1 hr Post-Injury Grip Test Scores After 3 mg/kg (mouse head injury): 148.3%

CCN(CC)c1cc(N2CCN(CC(=O)[C@@]3(O)[C@H](C)C[C@H]4[C@@H]5CCC6=CC(=O)C=C[C@]6(C)C5=CC[C@@]43C)CC2)nc(N(CC)CC)n1.Cl.O [Example 18, 21-[4-[2,6-Bis(diethylamino)-4-pyrimidinyl]-1-piperazinyl]-17α-hydroxy-16α-methylpregna-1,4,9(11)-triene-3,20-dione hydrochloride hydrate]
inhibition of ACAT (activity in words) [2]: active
inhibition of mucous secretion (activity in words) (mucous secretion): demonstrate such activity

CCN(CC)c1nc(N2CCCCC2)cc(N2CCN(CC(=O)[C@@]3(O)CC[C@H]4[C@@H]5CCC6=CC(=O)CC[C@]6(C)C5=CC[C@@]43C)CC2)n1.Cl.O [Example 17, 17α-Hydroxy-21-[4-[2-(diethylamino)-6-(1-piperidinyl)-4-pyrimidinyl]-1-piperazinyl]pregna-4,9(11)-diene-3,20-dione hydrochloride hydrate]
% of Control LD50 100 mg/kg (arachidonic acid): 150%
inhibition of MDA formation (activity in words) (MDA formation): demonstrate such activity
% Inhibition of ACAT ([2]; 5 μg/ml): 32.2%
inhibition of ACAT (activity in words) [2]: active

CCN(CC)c1cc(N2CCN(CC(=O)[C@H]3CC[C@H]4[C@@H]5CCC6=CC(=O)CC[C@]6(C)[C@H]5[C@H](O)C[C@]34C)CC2)nc(N(CC)CC)n1.Cl.Cl [Example 69, 21-[4-[2,6-bis(diethylamino)-4-pyrimidinyl]-1-piperazinyl]-11α-hydroxypregn-4-ene-3,20-dione dihydrochloride]
% Increase in 1 hr Post-Injury Grip Test Scores After 3 mg/kg (mouse head injury): 199.7%
